# Data reported in publication PMC4061985 (Journal of immunology (Baltimore, Md. : 1950), 2009).
# Residues, ends and D or L forms follow the SMILES beside them.
# Biological target: HLA-DR0901 protein (Homo sapiens, UniProt P01903+P01911, A100R/A103E/D57H/D86V/F55Y/F60I/F76Y/I96F/K127E/L162R/M171V/P40D/Q125H/Q99R/R33Q/R42F/S133A/S66N/T210M/V115G/W38K/Y107V/Y59G/Y89S)
# Experiment: Peptide binding competition assay, DR0901
row,SMILES,Kd [nM]
1,CC[C@H](C)[C@H](NC(=O)[C@H](Cc1c[nH]cn1)NC(=O)[C@H](CC(=O)O)NC(=O)[C@H](CC(C)C)NC(=O)[C@H](CO)NC(=O)[C@H](Cc1ccc(O)cc1)NC(=O)[C@H](CC(N)=O)NC(=O)[C@H](Cc1ccccc1)NC(=O)[C@H](CC(N)=O)NC(=O)[C@@H](N)CC(C)C)C(=O)N[C@H](C(=O)N[C@H](C(=O)N[C@@H](CC(=O)O)C(=O)O)C(C)C)[C@@H](C)CC [LNFNYSLDHIIVD] (H-LNFNYSLDHIIVD-OH),29 ± 9
2,CC[C@H](C)[C@H](NC(=O)[C@H](CCCCN)NC(=O)[C@H](CC(=O)O)NC(=O)[C@H](CC(C)C)NC(=O)[C@H](CO)NC(=O)[C@H](Cc1ccc(O)cc1)NC(=O)[C@H](CC(N)=O)NC(=O)[C@H](Cc1ccccc1)NC(=O)[C@H](CC(N)=O)NC(=O)[C@@H](N)CC(C)C)C(=O)N[C@@H](C)C(=O)N[C@H](C(=O)N[C@@H](CC(=O)O)C(=O)O)C(C)C [LNFNYSLDKIAVD] (H-LNFNYSLDKIAVD-OH),940 ± 250
3,CC[C@H](C)[C@H](NC(=O)[C@H](CCCCN)NC(=O)[C@H](CC(=O)O)NC(=O)[C@H](CC(C)C)NC(=O)[C@H](CO)NC(=O)[C@H](Cc1ccc(O)cc1)NC(=O)[C@H](CC(N)=O)NC(=O)[C@H](Cc1ccccc1)NC(=O)[C@H](CC(N)=O)NC(=O)[C@@H](N)CC(C)C)C(=O)N[C@@H](CC(=O)O)C(=O)N[C@H](C(=O)N[C@@H](CC(=O)O)C(=O)O)C(C)C [LNFNYSLDKIDVD] (H-LNFNYSLDKIDVD-OH),790 ± 120
4,CC[C@H](C)[C@H](NC(=O)[C@H](CCCCN)NC(=O)[C@H](CC(=O)O)NC(=O)[C@H](CC(C)C)NC(=O)[C@H](CO)NC(=O)[C@H](Cc1ccc(O)cc1)NC(=O)[C@H](CC(N)=O)NC(=O)[C@H](Cc1ccccc1)NC(=O)[C@H](CC(N)=O)NC(=O)[C@@H](N)CC(C)C)C(=O)N[C@@H](CCC(=O)O)C(=O)N[C@H](C(=O)N[C@@H](CC(=O)O)C(=O)O)C(C)C [LNFNYSLDKIEVD] (H-LNFNYSLDKIEVD-OH),890 ± 290
5,CC[C@H](C)[C@H](NC(=O)[C@H](CCCCN)NC(=O)[C@H](CC(=O)O)NC(=O)[C@H](CC(C)C)NC(=O)[C@H](CO)NC(=O)[C@H](Cc1ccc(O)cc1)NC(=O)[C@H](CC(N)=O)NC(=O)[C@H](Cc1ccccc1)NC(=O)[C@H](CC(N)=O)NC(=O)[C@@H](N)CC(C)C)C(=O)N[C@@H](Cc1c[nH]cn1)C(=O)N[C@H](C(=O)N[C@@H](CC(=O)O)C(=O)O)C(C)C [LNFNYSLDKIHVD] (H-LNFNYSLDKIHVD-OH),740 ± 170
6,CC[C@H](C)[C@H](NC(=O)[C@H](CCCCN)NC(=O)[C@H](CC(=O)O)NC(=O)[C@H](CC(C)C)NC(=O)[C@H](CO)NC(=O)[C@H](Cc1ccc(O)cc1)NC(=O)[C@H](CC(N)=O)NC(=O)[C@H](Cc1ccccc1)NC(=O)[C@H](CC(N)=O)NC(=O)[C@@H](N)CC(C)C)C(=O)N[C@H](C(=O)N[C@H](C(=O)N[C@@H](CC(=O)O)C(=O)O)C(C)C)[C@@H](C)CC [LNFNYSLDKIIVD] (H-LNFNYSLDKIIVD-OH),73 ± 16
7,CC[C@H](C)[C@H](NC(=O)[C@H](CCCCN)NC(=O)[C@H](CC(=O)O)NC(=O)[C@H](CC(C)C)NC(=O)[C@H](CO)NC(=O)[C@H](Cc1ccc(O)cc1)NC(=O)[C@H](CC(N)=O)NC(=O)[C@H](Cc1ccccc1)NC(=O)[C@H](CC(N)=O)NC(=O)[C@@H](N)CC(C)C)C(=O)N[C@@H](CC(C)C)C(=O)N[C@H](C(=O)N[C@@H](CC(=O)O)C(=O)O)C(C)C [LNFNYSLDKILVD] (H-LNFNYSLDKILVD-OH),330 ± 68
8,CC[C@H](C)[C@H](NC(=O)[C@H](CCCCN)NC(=O)[C@H](CC(=O)O)NC(=O)[C@H](CC(C)C)NC(=O)[C@H](CO)NC(=O)[C@H](Cc1ccc(O)cc1)NC(=O)[C@H](CC(N)=O)NC(=O)[C@H](Cc1ccccc1)NC(=O)[C@H](CC(N)=O)NC(=O)[C@@H](N)CC(C)C)C(=O)N[C@@H](CCSC)C(=O)N[C@H](C(=O)N[C@@H](CC(=O)O)C(=O)O)C(C)C [LNFNYSLDKIMVD] (H-LNFNYSLDKIMVD-OH),280 ± 61
